Legend:
SKMEL-3 tumours = assay: PET imaging in SKMEL-3 tumour bearing mice; format: in vivo, Swiss nudes mice; details: 1 h p.i.
Description: (§1) Protocols were performed under the authorization of the French Direction des Services Veterinaires (authorization no. CE 86-12). Female Swiss nudes mice (6 weeks old) were originating from Charles River laboratories and maintained at 21° C. with a 12 h/12 h light/dark cycle, fed with a breeding diet (diet A04 from Safe, Villemoisson, France) and received water ad libitum. For transplantation cell suspension were grown in a monolayer culture to confluence, after which cells were trypsinized, washed with phosphate buffer saline (PBS) and they were resuspended in PBS. Mice were anesthetized by isoflurane (4% for induction and 2±0.5% for maintaining in oxygen flux) inhalation. The primary tumour model was induced by subcutaneous injection of 3×10^6 melanoma SKMEL-3 (pigmented cell line) or A375 (non-pigmented cell ligne) cells in 0.1 mL on the right shoulder of mice.
(§2) Whole-body PET scans were acquired 1 h after bolus injection of 10 MBq of [^18F](1) in a volume of 0.15 ml via the tail vein. […]
(§3) Regional tracer uptake was quantified by standard region-of-interest (ROI) analysis with eXplore Vista software package. […]

A375 tumours = assay: PET imaging in A375 tumour bearing mice; format: in vivo, Swiss nudes mice; details: 1 h p.i.
Description: as §1, §2, §3

CCN(CCNC(=O)c1cnc2cc(I)ccc2n1)CCOCCOCCOCC[18F] [[^18F](1)]
muscles activity (SKMEL-3 tumours; SKMEL-3 tumour bearing mice): 1.34±0.42 % ID/g
tumour uptake (SKMEL-3 tumours; day-27, pigmented SKMEL-3 tumours): 4.65±1.07 % ID/g
muscles activity (A375 tumours; A375 tumour bearing mice): 1.14±0.28 % ID/g
tumour uptake (A375 tumours; day-23, unpigmented A375 tumours): 1.87±0.34 % ID/g

From US20150079000A1, “Labelled Quinoxaline Derivatives as Multimodal Radiopharmaceuticals and Their Precursors” (INSTITUT NATIONAL DE LA SANTET DE LA RECHERCHE MEDICALE, priority 2012, published 2015)
